Reference: ChEMBL document CHEMBL5291721, “A preclinical secondary pharmacology resource illuminates target-adverse drug reaction associations of marketed drugs” (Nat Commun, 2023)

Tests used:
[1] = biological target: T1, Alpha-1A adrenergic receptor (Homo sapiens, UniProt P35348)
T1 sequence (P35348 whole entry): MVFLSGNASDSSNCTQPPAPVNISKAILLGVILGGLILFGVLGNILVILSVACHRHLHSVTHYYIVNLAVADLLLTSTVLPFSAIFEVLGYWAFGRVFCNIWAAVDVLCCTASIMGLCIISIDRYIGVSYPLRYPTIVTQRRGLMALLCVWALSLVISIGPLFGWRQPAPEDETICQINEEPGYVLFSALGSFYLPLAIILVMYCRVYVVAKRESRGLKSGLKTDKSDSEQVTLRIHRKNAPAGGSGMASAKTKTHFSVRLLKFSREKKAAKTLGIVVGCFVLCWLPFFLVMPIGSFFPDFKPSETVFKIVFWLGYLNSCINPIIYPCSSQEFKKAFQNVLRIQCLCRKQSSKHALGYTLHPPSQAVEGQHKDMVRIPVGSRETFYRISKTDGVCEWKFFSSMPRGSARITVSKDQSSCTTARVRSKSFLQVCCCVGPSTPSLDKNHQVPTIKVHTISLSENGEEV

[2] = biological target: T2, Alpha-2A adrenergic receptor (Homo sapiens, UniProt P08913); type: functional, cell-based
T2 sequence (P08913 whole entry): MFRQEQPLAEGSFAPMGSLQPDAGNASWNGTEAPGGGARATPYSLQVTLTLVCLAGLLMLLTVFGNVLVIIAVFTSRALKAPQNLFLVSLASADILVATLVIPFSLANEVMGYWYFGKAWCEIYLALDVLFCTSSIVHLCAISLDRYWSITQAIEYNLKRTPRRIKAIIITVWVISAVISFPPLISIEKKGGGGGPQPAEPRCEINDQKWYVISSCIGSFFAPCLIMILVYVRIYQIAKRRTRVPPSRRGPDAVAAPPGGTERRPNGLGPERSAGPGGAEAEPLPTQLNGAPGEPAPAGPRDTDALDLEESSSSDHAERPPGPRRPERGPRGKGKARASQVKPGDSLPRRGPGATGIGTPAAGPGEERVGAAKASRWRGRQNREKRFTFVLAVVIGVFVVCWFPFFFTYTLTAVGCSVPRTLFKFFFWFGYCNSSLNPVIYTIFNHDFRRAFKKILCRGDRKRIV

[3] = biological target: T3, Alpha-2B adrenergic receptor (Homo sapiens, UniProt P18089)
T3 sequence (P18089 whole entry): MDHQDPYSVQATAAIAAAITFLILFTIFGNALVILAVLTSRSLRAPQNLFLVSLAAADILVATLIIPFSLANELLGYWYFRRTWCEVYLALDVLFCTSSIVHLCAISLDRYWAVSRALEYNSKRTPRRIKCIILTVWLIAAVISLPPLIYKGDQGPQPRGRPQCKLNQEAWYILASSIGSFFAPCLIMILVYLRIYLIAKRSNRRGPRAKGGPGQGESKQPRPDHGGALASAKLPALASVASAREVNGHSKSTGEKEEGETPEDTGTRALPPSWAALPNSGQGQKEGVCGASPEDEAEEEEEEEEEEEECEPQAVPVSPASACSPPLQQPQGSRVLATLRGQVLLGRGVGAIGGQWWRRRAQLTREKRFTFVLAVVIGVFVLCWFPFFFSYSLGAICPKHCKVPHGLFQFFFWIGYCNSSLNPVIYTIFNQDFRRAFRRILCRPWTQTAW

[4] = biological target: T4, Cholecystokinin receptor type A (Homo sapiens, UniProt P32238)
T4 sequence (P32238 whole entry): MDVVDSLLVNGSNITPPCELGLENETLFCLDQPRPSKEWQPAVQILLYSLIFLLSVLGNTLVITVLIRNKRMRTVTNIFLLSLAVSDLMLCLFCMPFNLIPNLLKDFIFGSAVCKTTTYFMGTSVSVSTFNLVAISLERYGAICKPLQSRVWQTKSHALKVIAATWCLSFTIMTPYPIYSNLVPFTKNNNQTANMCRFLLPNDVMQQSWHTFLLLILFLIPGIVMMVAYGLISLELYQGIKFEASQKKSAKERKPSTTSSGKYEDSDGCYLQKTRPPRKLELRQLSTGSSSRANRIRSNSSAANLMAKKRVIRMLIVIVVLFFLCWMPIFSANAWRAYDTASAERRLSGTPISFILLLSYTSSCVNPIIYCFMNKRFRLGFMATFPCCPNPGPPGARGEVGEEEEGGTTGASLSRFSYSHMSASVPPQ

[5] = biological target: T5, Muscarinic acetylcholine receptor M2 (Homo sapiens, UniProt P08172); type: functional, cell-based
T5 sequence (P08172 whole entry): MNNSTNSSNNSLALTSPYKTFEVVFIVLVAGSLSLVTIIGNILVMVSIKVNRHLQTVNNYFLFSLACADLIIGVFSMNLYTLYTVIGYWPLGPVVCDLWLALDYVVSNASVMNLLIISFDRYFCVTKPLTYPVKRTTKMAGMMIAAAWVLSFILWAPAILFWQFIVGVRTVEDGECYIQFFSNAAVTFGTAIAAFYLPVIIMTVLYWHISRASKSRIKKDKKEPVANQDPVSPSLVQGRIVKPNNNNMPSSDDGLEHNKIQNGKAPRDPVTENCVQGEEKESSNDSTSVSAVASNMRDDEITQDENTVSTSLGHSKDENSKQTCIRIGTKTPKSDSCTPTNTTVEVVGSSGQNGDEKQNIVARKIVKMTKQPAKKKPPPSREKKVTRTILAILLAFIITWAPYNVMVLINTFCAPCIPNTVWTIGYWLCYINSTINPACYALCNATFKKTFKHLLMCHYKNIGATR

[6] = biological target: Neuronal acetylcholine receptor subunit alpha-4 (Homo sapiens, UniProt P43681)
Neuronal acetylcholine receptor subunit alpha-4, sequence (P43681 whole entry): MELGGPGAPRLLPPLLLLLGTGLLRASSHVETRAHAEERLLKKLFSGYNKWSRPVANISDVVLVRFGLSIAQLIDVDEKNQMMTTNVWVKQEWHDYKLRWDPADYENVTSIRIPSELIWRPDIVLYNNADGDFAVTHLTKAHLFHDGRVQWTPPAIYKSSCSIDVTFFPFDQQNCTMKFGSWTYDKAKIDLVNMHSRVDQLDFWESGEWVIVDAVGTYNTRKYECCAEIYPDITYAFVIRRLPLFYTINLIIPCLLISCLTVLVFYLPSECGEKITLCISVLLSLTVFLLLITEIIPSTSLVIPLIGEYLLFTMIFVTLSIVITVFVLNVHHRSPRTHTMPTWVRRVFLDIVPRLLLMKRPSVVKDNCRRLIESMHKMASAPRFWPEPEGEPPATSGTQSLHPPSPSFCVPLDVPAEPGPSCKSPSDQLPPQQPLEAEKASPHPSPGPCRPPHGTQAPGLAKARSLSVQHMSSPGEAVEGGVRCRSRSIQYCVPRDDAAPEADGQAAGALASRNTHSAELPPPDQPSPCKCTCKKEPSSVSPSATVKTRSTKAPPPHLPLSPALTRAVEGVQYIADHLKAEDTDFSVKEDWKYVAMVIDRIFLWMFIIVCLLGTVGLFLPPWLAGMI

[7] = biological target: Gamma-aminobutyric acid receptor subunit alpha-1 (Rattus norvegicus, UniProt P62813); type: functional
Gamma-aminobutyric acid receptor subunit alpha-1, sequence (P62813 whole entry): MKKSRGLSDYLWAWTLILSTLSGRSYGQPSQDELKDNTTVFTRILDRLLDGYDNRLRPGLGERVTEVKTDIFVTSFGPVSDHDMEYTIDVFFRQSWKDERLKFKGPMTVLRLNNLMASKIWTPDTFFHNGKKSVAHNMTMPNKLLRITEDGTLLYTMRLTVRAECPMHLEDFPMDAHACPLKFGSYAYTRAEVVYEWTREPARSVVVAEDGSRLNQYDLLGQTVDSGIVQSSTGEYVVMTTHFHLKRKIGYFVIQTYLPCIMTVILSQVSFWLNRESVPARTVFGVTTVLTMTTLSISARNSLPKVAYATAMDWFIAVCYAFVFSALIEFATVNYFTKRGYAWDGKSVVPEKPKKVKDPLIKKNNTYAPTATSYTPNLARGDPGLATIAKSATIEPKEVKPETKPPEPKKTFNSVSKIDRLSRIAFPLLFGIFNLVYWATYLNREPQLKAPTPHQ

[8] = biological target: Glutamate receptor ionotropic, NMDA 1 (Rattus norvegicus, UniProt P35439)
[9] = biological target: Sodium-dependent serotonin transporter (Homo sapiens, UniProt P31645)
Sodium-dependent serotonin transporter, sequence (P31645 whole entry): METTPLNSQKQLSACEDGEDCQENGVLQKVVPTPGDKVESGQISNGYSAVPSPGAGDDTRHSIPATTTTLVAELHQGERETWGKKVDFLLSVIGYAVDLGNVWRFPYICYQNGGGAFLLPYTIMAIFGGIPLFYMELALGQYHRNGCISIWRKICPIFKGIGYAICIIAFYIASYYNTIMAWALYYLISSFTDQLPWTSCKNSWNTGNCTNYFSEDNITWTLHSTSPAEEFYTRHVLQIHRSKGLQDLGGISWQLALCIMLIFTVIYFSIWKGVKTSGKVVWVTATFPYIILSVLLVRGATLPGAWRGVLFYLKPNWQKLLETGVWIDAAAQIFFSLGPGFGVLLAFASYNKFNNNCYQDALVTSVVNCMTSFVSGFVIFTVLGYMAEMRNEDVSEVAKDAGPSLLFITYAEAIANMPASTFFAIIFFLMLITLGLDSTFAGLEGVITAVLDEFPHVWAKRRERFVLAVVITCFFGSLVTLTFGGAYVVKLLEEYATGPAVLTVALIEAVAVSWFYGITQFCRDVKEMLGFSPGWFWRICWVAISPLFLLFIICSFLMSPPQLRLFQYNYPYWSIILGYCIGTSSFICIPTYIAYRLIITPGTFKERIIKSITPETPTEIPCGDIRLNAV
Also: assay procedure not described here.

Row | SMILES | AC50 [1] [µM] | AC50 [2] [µM] | AC50 [3] [µM] | AC50 [4] [µM] | AC50 [5] [µM] | AC50 [6] [µM] | AC50 [7] [µM] | AC50 [8] [µM] | AC50 [9] [µM]
1 | CCN(CC)CCCN(c1ccccc1)C1Cc2ccccc2C1 [APRINDINE] | 1.3 | > 30 | > 30 | > 30 | > 30 | > 30 | > 30 | > 30 | 3.3
2 | Oc1cc(O)c2c(c1)O[C@H](c1ccc(O)c(O)c1)[C@@H](O)C2 [CIANIDANOL] | > 10 | > 10 | > 10 | > 30 | > 10 | > 10 | > 10 | > 10 | > 30
3 | CN(C)CCOC(=O)C(c1ccccc1)C1(O)CCCC1 (stereo not given) [CYCLOPENTOLATE] | > 30 | > 10 | > 10 | > 10 | > 10 | > 10 | > 10 | > 10 | > 30
4 | OCC(O)COc1ccc(Cl)cc1 (stereo not given) | > 10 | > 10 | > 10 | > 10 | > 10 | > 10 | > 10 | > 10 | > 10
5 | CC(C)(N)Cc1ccccc1 [PHENTERMINE] | > 10 | > 10 | > 10 | > 30 | > 10 | > 10 | > 10 | > 10 | > 30
6 | Cc1cnc(Nc2ccc(OCCN3CCCC3)cc2)nc1Nc1cccc(S(=O)(=O)NC(C)(C)C)c1 [FEDRATINIB] | > 10 | > 10 | > 10 | > 30 | > 10 | > 10 | > 10 | > 10 | 0.732
7 | Cc1ccc(-c2ncc(Cl)cc2-c2ccc(S(C)(=O)=O)cc2)cn1 [ETORICOXIB] | > 10 | > 10 | > 10 | > 10 | > 10 | > 10 | > 10 | > 10 | > 10
8 | Cc1cccc(Nc2ccncc2S(=O)(=O)NC(=O)NC(C)C)c1 [TORSEMIDE] | > 10 | > 10 | – | > 30 | > 10 | > 30 | > 10 | > 10 | –
9 | CN1C(=O)CN=C(c2ccccc2F)c2cc([N+](=O)[O-])ccc21 [FLUNITRAZEPAM] | > 10 | > 10 | > 10 | – | > 10 | > 10 | 0.0055 | > 10 | > 10
10 | CC(=O)[C@@]1(O)CC[C@H]2[C@@H]3C[C@H](C)C4=CC(=O)C=C[C@]4(C)[C@@]3(F)[C@@H](O)C[C@@]21C [FLUOROMETHOLONE] | > 10 | > 10 | – | > 10 | > 10 | > 10 | > 10 | > 10 | –
